Among the data in publication PMC6272903, “Synthesis and Structure-Activity Relationship Analysis of 5-HT7 Receptor Antagonists: Piperazin-1-yl Substituted Unfused Heterobiaryls” (Molecules, 2016) are Ki and inhibition values, retold here.

In the experiment the target is T1, human 5-HT7b receptors (Homo sapiens, UniProt P34969).
T1 construct: expressed in transfected cells; host or cells: HEK293
As to the kind of experiment: 5-HT7 competition radioligand binding assay ([3H]5-CT). The note with it: for Ki: HEK293 cells overexpressing human 5-HT7b receptors, at least two independent experiments in triplicate, read-out: Ki ± S.D. 5-HT7 binding affinity. The method, then: Novel scaffold endowed with 5-HT7R activity was identified by screening of the in-house compound library in a single compound concentration of 1 µM in a competition radioligand binding assay using [^3H]5-CT and HEK293 cells overexpressing the human 5-HT7b receptors.

“And” between values parts separate entries of the source, which are not always exact repeats. Equal values may be shown once.

T1 sequence (P34969 1-432): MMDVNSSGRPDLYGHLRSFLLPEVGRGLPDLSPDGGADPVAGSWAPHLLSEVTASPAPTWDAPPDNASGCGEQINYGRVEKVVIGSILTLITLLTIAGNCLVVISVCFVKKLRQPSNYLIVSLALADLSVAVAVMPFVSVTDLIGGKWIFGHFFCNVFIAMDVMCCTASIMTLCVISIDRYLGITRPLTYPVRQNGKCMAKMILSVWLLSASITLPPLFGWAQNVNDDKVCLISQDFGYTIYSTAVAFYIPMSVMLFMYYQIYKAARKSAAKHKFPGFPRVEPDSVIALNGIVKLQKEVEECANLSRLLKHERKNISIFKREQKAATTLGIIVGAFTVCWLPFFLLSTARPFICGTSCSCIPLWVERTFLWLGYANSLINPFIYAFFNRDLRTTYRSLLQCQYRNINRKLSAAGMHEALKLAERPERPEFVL

With `OCCN1CCN(c2nccc(-c3ccoc3)n2)CC1` [Compound 8, 2-[4-(2-Hydroxyethyl)piperazin-1-yl]-4-(3-furyl)pyrimidine], the Ki (in general, the dissociation constant of the complex between target and ligand, obtained from inhibition or displacement) is 8.5 ± 1.1 nM.
Same read-out and setting: the same measure for `CN1CCN(c2cccc(-c3ccoc3)n2)CC1` [Compound 57, 6-(3-Furyl)-2-(4-methylpiperazin-1-yl)pyridine]: 8 nM and 11 nM.
The same measure, in the same setting: the same measure for `CN1CCN(c2nc(-c3ccoc3)cc(C(F)(F)F)n2)CC1` [Compound 16, 4-(3-Furyl)-2-(4-methylpiperazin-1-yl)-6-(trifluoromethyl)pyrimidine]: 8.3 ± 1.7 nM; for `c1cc(-c2ccoc2)nc(N2CCNCC2)n1` [Compound 1, 4-(3-Furyl)-2-(piperazin-1-yl)pyrimidine]: 9 ± 2 nM.
Same read-out and setting: in the case of `CCC(C)c1cc(-c2ccoc2)nc(N2CCN(C)CC2)n1` (stereo not drawn) [Compound 15, 4-sec-Butyl-6-(3-furyl)-2-(4-methylpiperazin-1-yl)pyrimidine] it was 2.7 ± 0.5 nM.
With `CN1CCN(c2nccc(-c3cc4ccccc4s3)n2)CC1` [Compound 37, 4-(Benzothiophen-2-yl)-2-(4-methylpiperazin-1-yl)pyrimidine], the inhibition constant Ki was found to be 5280 ± 820 nM.
As to `Cc1cc(-c2ccoc2)cc(N2CCN(C)CC2)n1` [Compound 54, 4-(3-Furyl)-2-methyl-6-(4-methylpiperazin-1-yl)pyridine], the Ki was found to be 8 ± 1 nM.
In the case of `CN1CCN(c2nccc(-c3ccsc3)n2)CC1` [Compound 30, 2-(Methylpiperazin-1-yl)-4-(3-thienyl)pyrimidine], the inhibition constant Ki is 83 ± 9 nM.
On to `CCCCc1cc(-c2cccs2)cc(N2CCN(C)CC2)c1` [Compound 71, 1-[3-n-Butyl-5-(2-thienyl)phenyl]-4-methylpiperazine], for which the Ki is 734 ± 59 nM.
On the same count and under the same terms, in the case of `Cc1cc(-c2ccco2)cc(N2CCN(C)CC2)n1` [Compound 55, 4-(2-Furyl)-2-methyl-6-(4-methylpiperazin-1-yl)pyridine] it was 139 ± 22 nM.
On the same count and under the same terms, the same measure for `CN1CCN(c2nccc(-c3cccs3)n2)CC1` [Compound 32, 2-(Methylpiperazin-1-yl)-4-(2-thienyl)pyrimidine]: 480 ± 65 nM; for `CN1CCN(c2nccc(-c3ccc(O)cc3)n2)CC1` [Compound 35, 4-(4-Hydroxyphenyl)-2-(4-methylpiperazin-1-yl)pyrimidine]: above 10000 nM.
Same read-out and setting: in the case of `CCCCc1cc(-c2ccco2)cc(N2CCN(C)CC2)c1` [Compound 65, 1-[3-n-Butyl-5-(2-furyl)phenyl]-4-methylpiperazine] it was 743 ± 66 nM; in that of `CCCc1cnc(N2CCN(C)CC2)nc1-c1ccoc1` [Compound 21, 4-(3-Furyl)-2-(4-methylpiperazino)-5-propylpyrimidine], 1330 ± 232 nM; in that of `CN1CCN(c2cccc(-c3ccsc3)c2)CC1` [Compound 66, 1-Methyl-4-[3-(3-thienyl)phenyl]piperazine], 342 ± 51 nM.
As for `c1cc(-c2ccoc2)nc(NCCCc2ncc[nH]2)n1` [Compound 46, 4-(3-Furyl)-N-[3-(1H-imidazol-2-yl)propyl]pyrimidin-2-amine], the Ki was determined as 1280 ± 187 nM.
`CN1CCN(c2nc(-c3ccoc3)cc(N(C)C)n2)CC1` [Compound 19, 4-Dimethylamino-6-(3-furyl)-2-(4-methylpiperazin-1-yl)pyrimidine]: the Ki is above 10000 nM.
Same read-out and setting: the same measure for `Cc1ccc(-c2ccnc(N3CCN(C)CC3)n2)o1` [Compound 29, 4-(5-Methyl-2-furyl)-2-(4-methylpiperazin-1-yl)pyrimidine]: 4230 ± 680 nM.
For the compound `CCCCc1cc(-c2ccco2)nc(N2CCN(C)CC2)n1` [Compound 28, 4-n-Butyl-6-(2-furyl)-2-(4-methylpiperazin-1-yl)pyrimidine], the inhibitory constant (Ki) was determined as 450 ± 63 nM.
Still for that read-out and setting: the same measure for `CN1CCCN(c2nccc(-c3ccoc3)n2)CC1` [Compound 42, 4-(3-Furyl)-2-(4-methylhomopiperazin-1-yl)pyrimidine]: 148 ± 17 nM; for `c1cc(-c2ccoc2)nc(NCCN2CCOCC2)n1` [Compound 45, 4-(3-Furyl)-N-[2-(morpholin-4-yl)ethyl]pyrimidin-2-amine]: 2460 ± 343 nM.
Turning to `CCCCCCc1cc(-c2ccoc2)nc(N2CCN(C)CC2)n1` [Compound 14, 4-(3-Furyl)-6-n-hexyl-2-(4-methylpiperazin-1-yl)pyrimidine], the Ki stood at 3.3 ± 0.5 nM.
`CN1CCN(c2nccc(-n3ccnc3)n2)CC1` [Compound 41, (1H-Imidazol-1-yl)-2-(4-methylpiperazin-1-yl)pyrimidine]: the Ki stood at 1980 ± 275 nM.
`CN1CCN(c2nccc(-c3cc4ccccc4o3)n2)CC1` [Compound 36, 4-(Benzofuran-2-yl)-2-(4-methylpiperazin-1-yl)pyrimidine]: the inhibition constant Ki was 7460 ± 1230 nM.
For `CN1CCN(c2nc(C#CC3=CCCCC3)cc(-c3ccoc3)n2)CC1` [Compound 17, 4-(Cyclohexenylethynyl)-6-(3-furyl)-2-(4-methylpiperazin-1-yl)pyrimidine], the Ki is 18 ± 3 nM.
Still for that read-out and setting: in the case of `Cc1cc(-c2ccsc2)cc(N2CCN(C)CC2)c1` [Compound 67, 1-Methyl-4-[3-methyl-5-(3-thienyl)phenyl]piperazine] it was 47 ± 6 nM.
On the same count and under the same terms, the same measure for `CN1CCN(c2cc(-c3ccoc3)ccn2)CC1` [Compound 51, 4-(3-Furyl)-2-(4-methylpiperazin-1-yl)pyridine]: 17 ± 2 nM; for `CN1CCN(c2nccc(-c3cccnc3)n2)CC1` [Compound 39, 2-(4-Methylpiperazin-1-yl)-4-(pyridin-3-yl)pyrimidine]: 780 ± 94 nM.
For the compound `CCCCc1nc(N2CCN(C)CC2)nc(-c2ccoc2)c1CCC` [Compound 22, 4-n-Butyl-6-(3-furyl)-2-(4-methylpiperazino)-5-propylpyrimidine], the Ki was 1250 ± 116 nM.
`CN1CCN(c2cccc(-c3cccs3)c2)CC1` [Compound 69, 1-Methyl-4-[3-(2-thienyl)phenyl]piperazine]: the Ki stood at 542 ± 66 nM.
On the same count and under the same terms, in the case of `CCN1CCN(c2nccc(-c3ccoc3)n2)CC1` [Compound 3, 2-(4-Ethylpiperazin-1-yl)-4-(3-furyl)pyrimidine] it was 10 ± 1 nM.
Regarding `CN1CCN(c2nc(N3CCN(C)CC3)c3ccccc3n2)CC1` [Compound 49, 2,4-bis(4-Methylpiperazin-1-yl)quinazoline], the inhibition constant Ki amounted to 7540 ± 1140 nM.
Still for that read-out and setting: the same measure for `CN1CCN(c2cccc(-c3ccco3)c2)CC1` [Compound 63, 1-[3-(2-Furyl)phenyl]-4-methylpiperazine]: 914 ± 121 nM.
Turning to `CN1CCN(c2nccc(-c3nccs3)n2)CC1` [Compound 40, 2-(4-Methylpiperazin-1-yl)-4-(thiazol-2-yl)pyrimidine], the Ki was above 10000 nM.
Consider `Cc1occc1-c1ccnc(N2CCN(C)CC2)n1` [Compound 23, 4-(2-Methyl-3-furyl)-2-(4-methylpiperazin-1-yl)pyrimidine], for which the Ki amounted to 1920 ± 373 nM.
Same read-out and setting: the same measure for `CCCN1CCN(c2nccc(-c3ccoc3)n2)CC1` [Compound 4, 4-(3-Furyl)-2-(4-propylpiperazin-1-yl)pyrimidine]: 5.3 ± 0.9 nM; for `c1ccc(CN2CCN(c3nccc(-c4ccoc4)n3)CC2)cc1` [Compound 5, 2-(4-Benzylpiperazin-1-yl)-4-(3-furyl)pyrimidine]: 25 ± 3 nM; for `CN1CCN(c2cccc(-c3ccoc3)c2)CC1` [Compound 60, 1-[3-(3-Furyl)phenyl]-4-methylpiperazine]: 31 ± 4 nM.
With `Cc1cc(-c2ccnc(N3CCN(C)CC3)n2)co1` [Compound 24, 4-(5-Methyl-3-furyl)-2-(4-methylpiperazin-1-yl)pyrimidine], the inhibition constant Ki was found to be 462 ± 54 nM.
On the same count and under the same terms, the same measure for `CN1CCN(c2cccc(-c3ccsc3)n2)CC1` [Compound 58, 2-(4-Methylpiperazin-1-yl)-6-(3-thienyl)pyridine]: 79 ± 14 nM.
Still for that read-out and setting: the same measure for `c1cc(-c2ccoc2)nc(N2CC[N+]3(CCOCC3)CC2)n1` [Compound 47, 4-[4-(3-Furyl)pyrimidin-2-yl]piperazine-1-spiro-1-morpholinium iodide]: 299 ± 42 nM; for `CCCCc1cc(-c2ccsc2)nc(N2CCN(C)CC2)n1` [Compound 31, 4-n-Butyl-2-(methylpiperazin-1-yl)-6-(3-thienyl)pyrimidine]: 15 ± 3 nM; for `CN1CCN(c2cc(-c3cccs3)ccn2)CC1` [Compound 53, 2-(4-Methylpiperazin-1-yl)-4-(2-thienyl)pyridine]: 396 ± 55 nM.
Still for that read-out and setting: the same measure for `c1ccc(CCCN2CCN(c3nccc(-c4ccoc4)n3)CC2)cc1` [Compound 7]: 1.6 ± 0.2 nM; for `CCCCc1cc(-c2ccsc2)cc(N2CCN(C)CC2)c1` [Compound 68, 1-[3-n-Butyl-5-(3-thienyl)phenyl]-4-methylpiperazine]: 263 ± 19 nM.
For `CCOC(=O)CCCCCN1CCN(c2nccc(-c3ccoc3)n2)CC1` [Compound 10], the Ki amounted to 1.4 ± 0.3 nM.
Take `CN1CCN(c2nccc(-c3ccoc3)n2)CC1` [Compound 2, 4-(3-Furyl)-2-(4-methylpiperazin-1-yl)pyrimidine]: the Ki worked out at 7.2 ± 1.4 nM. Further, the inhibition (usually the drop in the measured response relative to a control, in per cent) at 1 µM (single compound concentration of 1 µM, HEK293 cells, read-out: inhibition in library screening) is above 60%.
For `CN1CCN(c2nccc(-c3cc4ccccc4n3C)n2)CC1` [Compound 38, 4-(1-Methylindol-2-yl)-2-(4-methylpiperazin-1-yl)pyrimidine], the Ki was 1530 ± 125 nM.
For the compound `Cc1cc(-c2cccs2)cc(N2CCN(C)CC2)c1` [Compound 70, 1-Methyl-4-[3-methyl-5-(2-thienyl)phenyl]piperazine], the Ki worked out at 297 ± 42 nM.
Take `Cc1cc(-c2ccoc2)cc(N2CCN(C)CC2)c1` [Compound 61, 1-[3-(3-Furyl)-5-methylphenyl]-4-methylpiperazine]: the Ki was found to be 37 ± 3 nM.
Still for that read-out and setting: in the case of `CN1CCN(c2cc(-c3ccco3)ccn2)CC1` [Compound 52, 4-(2-Furyl)-2-(4-methylpiperazin-1-yl)pyridine] it was 307 ± 42 nM; in that of `O=C(c1ccccc1)N1CCN(c2nccc(-c3ccoc3)n2)CC1` [Compound 6, 2-(4-Benzoylpiperazin-1-yl)-4-(3-furyl)pyrimidine], 1400 ± 173 nM; in that of `CN1CCN(c2nc(-c3ccoc3)c3ccccc3n2)CC1` [Compound 48, 4-(3-Furyl)-2-(methylpiperazin-1-yl)quinazoline], 1910 ± 235 nM.
